Source: patent US7592358B2 (Boehringer Ingelheim International GmbH, priority 2004, dated 2009)

Target: T1, hMCH-1R (Homo sapiens, UniProt Q99705)
T1 construct: expressed in transfected cells; host or cells: CHO/Galpha16 cells
Assay: MCH-1 receptor binding test
Settings: ^125I-MCH binding to membranes from CHO/Galpha16 cells stably transfected with human hMCH-1R
Description: Membranes from CHO/Galpha16 cells stably transfected with human hMCH-1R are resuspended using a syringe (needle 0.6×25 mm) and diluted in test buffer (50 mM HEPES, 10 mM MgCl2, 2 mM EGTA, pH 7.00; 0.1% bovine serum albumin (protease-free), 0.021% bacitracin, 1 μg/mL aprotinin, 1 μg/mL leupeptin and 1 μM phosphoramidone) to a concentration of 5 to 15 μg/mL. […] After the incubation the reaction is filtered using a cell harvester through 0.5% PEI treated fiberglass filters (GF/B, Unifilter Packard). The membrane-bound radioactivity retained on the filter is then determined after the addition of scintillator substance (Packard Microscint 20) in a measuring device (TopCount of Packard). […] The analysis of the concentration binding curve is carried out on the assumption of one receptor binding site.

T1 sequence (Q99705 whole entry): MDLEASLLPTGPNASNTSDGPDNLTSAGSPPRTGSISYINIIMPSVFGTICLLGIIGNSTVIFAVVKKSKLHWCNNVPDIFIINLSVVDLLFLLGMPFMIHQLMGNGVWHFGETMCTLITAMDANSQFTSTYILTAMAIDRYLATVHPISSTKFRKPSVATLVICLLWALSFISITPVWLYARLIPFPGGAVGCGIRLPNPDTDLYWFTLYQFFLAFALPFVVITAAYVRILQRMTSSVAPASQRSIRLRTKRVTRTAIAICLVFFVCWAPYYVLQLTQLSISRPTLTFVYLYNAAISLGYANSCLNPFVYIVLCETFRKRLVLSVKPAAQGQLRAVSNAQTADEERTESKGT

Compound | IC50 [nM]
Cc1cc(C#Cc2ccc(-c3ccc(Cl)cc3)cn2)ccc1OCCN(C1CCCCC1)C1CCCC1 [Example 1.9, (2-{4-[5-(4-chlorophenyl)pyridin-2-ylethynyl]-2-methylphenoxy}ethyl)cyclohexylcyclopentylamine] | 6.2
CC1(O)CCN(Cc2cc3cc(C#Cc4ccc(-c5ccc(Cl)cc5)cn4)ccc3s2)CC1 [Example 22.3, 1-{5-[5-(4-chlorophenyl)pyridin-2-ylethynyl]benzo[b]thiophen-2-ylmethyl}-4-methylpiperidin-4-ol] | 31
